Data: PubChem BioAssay AID1963862 (Molecular Pharmacology Branch, DTP, NCI, 2024)
pIC50: −log10 of the molar value. “And” between values parts separate entries of the source, which are not always exact repeats. Identical values can stand only once.

Tested on: KRAS patient-derived spheroids with HUVEC/MSC, viability
Assay: Anticancer human tumor 941728-121-R-J1-PDC patient-derived lung adenocarcinoma cell line growth inhibition [KRAS2]
Details: for viability, T/C: stronger effect = lower value
In short: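 KRAS-mutant tumor cells were grown as spheroids with HUVEC endothelial cells and human MSCs as stroma. Targeted agents were tested alone and with KRAS pathway inhibitors. Doses started at or near clinical Cmax, or 10 microM, descending half-log.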

[1] = compound alone, run of 07/19/2021
[2] = curve of first compound, second compound 0.1 µM
[3] = curve of first compound, second compound 0.316 µM
[4] = curve of first compound, second compound 1 µM
[5] = curve of first compound, second compound 3.16 µM
[6] = curve of first compound, second compound 10 µM
[7] = second compound 0.1 µM, first compound 0.01 µM
[8] = second compound 0.1 µM, first compound 0.0316 µM
[9] = second compound 0.1 µM, first compound 0.1 µM
[10] = second compound 0.1 µM, first compound 0.316 µM
[11] = second compound 0.1 µM, first compound 1 µM
[12] = second compound 0.1 µM, first compound 3.16 µM
[13] = second compound 0.316 µM, first compound 0.01 µM
[14] = second compound 0.316 µM, first compound 0.0316 µM
[15] = second compound 0.316 µM, first compound 0.1 µM
[16] = second compound 0.316 µM, first compound 0.316 µM
[17] = second compound 0.316 µM, first compound 1 µM
[18] = second compound 0.316 µM, first compound 3.16 µM
[19] = second compound 1 µM, first compound 0.01 µM
[20] = second compound 1 µM, first compound 0.0316 µM
[21] = second compound 1 µM, first compound 0.1 µM
[22] = second compound 1 µM, first compound 0.316 µM
[23] = second compound 1 µM, first compound 1 µM
[24] = second compound 1 µM, first compound 3.16 µM
[25] = second compound 3.16 µM, first compound 0.01 µM
[26] = second compound 3.16 µM, first compound 0.0316 µM
[27] = second compound 3.16 µM, first compound 0.1 µM
[28] = second compound 3.16 µM, first compound 0.316 µM
[29] = second compound 3.16 µM, first compound 1 µM
[30] = second compound 3.16 µM, first compound 3.16 µM
[31] = second compound 10 µM, first compound 0.01 µM
[32] = second compound 10 µM, first compound 0.0316 µM
[33] = second compound 10 µM, first compound 0.1 µM
[34] = second compound 10 µM, first compound 0.316 µM
[35] = second compound 10 µM, first compound 1 µM
[36] = second compound 10 µM, first compound 3.16 µM
[37] = second compound 0.1 µM, first compound 10 µM
[38] = second compound 0.316 µM, first compound 10 µM
[39] = second compound 1 µM, first compound 10 µM
[40] = second compound 3.16 µM, first compound 10 µM
[41] = second compound 10 µM, first compound 10 µM
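Also: spheroids exposed to agents for seven days before readout.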

| Structure (SMILES) | pIC50 [2] | pIC50 [3] | pIC50 [4] | pIC50 [5] | pIC50 [6] | viability, T/C [8] [%] | viability, T/C [9] [%] | viability, T/C [10] [%] | viability, T/C [11] [%] | viability, T/C [14] [%] | viability, T/C [15] [%] | viability, T/C [16] [%] | viability, T/C [17] [%] | viability, T/C [20] [%] | viability, T/C [21] [%] | viability, T/C [22] [%] | viability, T/C [23] [%] | viability, T/C [26] [%] | viability, T/C [27] [%] | viability, T/C [28] [%] | also measured |
| --- | --- | --- | --- | --- | --- | --- | --- | --- | --- | --- | --- | --- | --- | --- | --- | --- | --- | --- | --- | --- | --- |
| COc1cc2nc(C)nc(NC(C)c3cc(N)cc(C(F)(F)F)c3)c2cc1OC1CCOC1 (stereo not given) |  |  |  |  |  |  |  |  |  |  |  |  |  |  |  |  |  |  |  |  | pIC50 [1]: > 7.00 and 6.42 and 6.65 |
| C=CC(=O)N1CCN(c2nc(=O)n(-c3c(C)ccnc3C(C)C)c3nc(-c4c(O)cccc4F)c(F)cc23)C(C)C1 (stereo not given) |  |  |  |  |  |  |  |  |  |  |  |  |  |  |  |  |  |  |  |  | viability, T/C (compound 0.1 µM): 23.2% [middle of 17 runs]; viability, T/C (compound 0.316 µM): 22.9% [middle of 17 runs]; viability, T/C (compound 1 µM): 22.8% [middle of 17 runs]; viability, T/C (compound 3.16 µM): 27.4% [middle of 17 runs]; viability, T/C (compound 10 µM): 32.9% [middle of 17 runs]; pIC50 (compound alone, run of 07/12/2021): > 7.00; pIC50 [1]: > 7.00; pIC50 (compound alone, run of 07/26/2021): > 7.00 |
| CC1COCCN1c1cc(-c2ccnn2C)c2ccnc(-c3ccn[nH]3)c2n1 (stereo not given) + C=CC(=O)N1CCN(c2nc(=O)n(-c3c(C)ccnc3C(C)C)c3nc(-c4c(O)cccc4F)c(F)cc23)C(C)C1 | > 8.00 | > 8.00 | > 8.00 | > 8.00 | > 8.00 | 20.3 | 18.5 | 16.3 | 13.1 | 23.2 | 19.2 | 19.1 | 13.5 | 24.6 | 21 | 17.5 | 14.1 | 27.1 | 24.2 | 21.2 | viability, T/C [7]: 23.9%; viability, T/C [12]: 10.7%; viability, T/C [13]: 23.6%; viability, T/C [18]: 10.5%; viability, T/C [19]: 25.1%; viability, T/C [24]: 14%; viability, T/C [25]: 26.2%; viability, T/C [29]: 20.1%; viability, T/C [30]: 16.5%; viability, T/C [31]: 33.3%; viability, T/C [32]: 34.8%; viability, T/C [33]: 31.9%; viability, T/C [34]: 28.4%; viability, T/C [35]: 25.4%; viability, T/C [36]: 30.5% |
| CC(C)NCC(C(=O)N1CCN(c2ncnc3c2C(C)CC3O)CC1)c1ccc(Cl)cc1 (stereo not given) + CC1OCC2(CCN(c3cnc(Sc4ccnc(N)c4Cl)c(N)n3)CC2)C1N | > 7.50 | > 7.50 | > 7.50 | > 7.50 | > 7.50 | 38.3 | 40.1 | 29.9 | 24.9 | 34 | 31.9 | 25.3 | 20.9 | 26.2 | 26.8 | 23.7 | 16.7 | 25.8 | 22.1 | 20.8 | viability, T/C [12]: 19.1%; viability, T/C [37]: 10.4%; viability, T/C [18]: 15.1%; viability, T/C [38]: 8.83%; viability, T/C [24]: 12.8%; viability, T/C [39]: 4.1%; viability, T/C [29]: 14.3%; viability, T/C [30]: 10.7%; viability, T/C [40]: 3.56%; viability, T/C [32]: 19.1%; viability, T/C [33]: 17.9%; viability, T/C [34]: 17.2%; viability, T/C [35]: 11.2%; viability, T/C [36]: 4.83%; viability, T/C [41]: 1.91% |
| CCN1CCN(Cc2ccc(Nc3ncc(F)c(-c4cc(F)c5nc(C)n(C(C)C)c5c4)n3)nc2)CC1 + CNCc1ccccc1-c1csc(C(C)Nc2nc(C)nc3cc(OC)c(OC)cc23)c1 | 8.21 | > 8.50 | > 8.50 | > 8.50 | > 8.50 | 40 | 43.7 | 38.4 | 53 | 31 | 28.9 | 30.6 | 46.8 | 18.7 | 17.1 | 16.9 | 5.4 | 1.42 | 2.24 | 0.67 | viability, T/C (second compound 0.1 µM, first compound 0.00316 µM): 58.2%; viability, T/C [7]: 43.9%; viability, T/C (second compound 0.316 µM, first compound 0.00316 µM): 44%; viability, T/C [13]: 38.5%; viability, T/C (second compound 1 µM, first compound 0.00316 µM): 22.1%; viability, T/C [19]: 25.4%; viability, T/C (second compound 3.16 µM, first compound 0.00316 µM): 1.35%; viability, T/C [25]: 1.57%; viability, T/C [29]: 2.46%; viability, T/C (second compound 10 µM, first compound 0.00316 µM): 0.72%; viability, T/C [31]: 0.55%; viability, T/C [32]: 0.84%; viability, T/C [33]: 0.24%; viability, T/C [34]: 0.74%; viability, T/C [35]: 0.15% |
| CC(=O)OC12COC1CC(O)C1(C)C(=O)C(O)C3=C(C)C(OC(=O)C(O)C(NC(=O)OC(C)(C)C)c4ccccc4)CC(O)(C(OC(=O)c4ccccc4)C21)C3(C)C (stereo not given) |  |  |  |  |  |  |  |  |  |  |  |  |  |  |  |  |  |  |  |  | viability, T/C (compound 0.01 µM): 53% [middle of 5 runs]; viability, T/C (compound 0.0316 µM): 46.3% [middle of 5 runs]; viability, T/C (compound 0.1 µM): 46.2% [middle of 5 runs]; viability, T/C (compound 0.316 µM): 46.5% [middle of 5 runs]; viability, T/C (compound 1 µM): 53.8% [middle of 5 runs]; viability, T/C (compound 3.16 µM): 55.1% [middle of 5 runs] |
| Cn1nccc1Nc1nccc(-c2cc3c(s2)C(C)(C)N(CCN2CCOCC2)C3=O)n1 + C=CC(=O)N1CCN(c2nc(=O)n(-c3c(C)ccnc3C(C)C)c3nc(-c4c(O)cccc4F)c(F)cc23)C(C)C1 | > 7.50 | > 7.50 | > 7.50 | > 7.50 | > 7.50 | 23.9 | 23.4 | 19 | 19.6 | 25.4 | 24.4 | 20.2 | 18.9 | 26.1 | 27.4 | 21.1 | 19.9 | 30.6 | 31.4 | 24.9 | viability, T/C [12]: 17.7%; viability, T/C [37]: 20.7%; viability, T/C [18]: 16.8%; viability, T/C [38]: 21.4%; viability, T/C [24]: 17.8%; viability, T/C [39]: 29.4%; viability, T/C [29]: 23.6%; viability, T/C [30]: 22.9%; viability, T/C [40]: 32.3%; viability, T/C [32]: 36.4%; viability, T/C [33]: 38%; viability, T/C [34]: 30.7%; viability, T/C [35]: 30%; viability, T/C [36]: 34.2%; viability, T/C [41]: 57.5% |
| COc1cc2nccc(Oc3ccc(NC(=O)C4(C(=O)Nc5ccc(F)cc5)CC4)cc3)c2cc1OC + CC1OCC2(CCN(c3cnc(Sc4ccnc(N)c4Cl)c(N)n3)CC2)C1N | > 7.50 | > 7.50 | > 7.50 | > 7.50 | > 7.50 | 48.9 | 40 | 31.5 | 29.4 | 28.8 | 26.2 | 29 | 27.8 | 25.3 | 25.9 | 24.1 | 15.5 | 25.3 | 20.1 | 11.7 | viability, T/C [12]: 34.2%; viability, T/C [37]: 26.9%; viability, T/C [18]: 14.6%; viability, T/C [38]: 16.6%; viability, T/C [24]: 8.65%; viability, T/C [39]: 7.11%; viability, T/C [29]: 12%; viability, T/C [30]: 7.91%; viability, T/C [40]: 4.69%; viability, T/C [32]: 20.7%; viability, T/C [33]: 14.8%; viability, T/C [34]: 12.2%; viability, T/C [35]: 8.99%; viability, T/C [36]: 4.63%; viability, T/C [41]: 4.36% |
